In the OPERA property sets (Mansouri et al. 2018):

conditions: not given

In order of falling melting point:
1. O=C(O)c1cc(I)c(I)c(I)c1  292 °C
2. Oc1ccc(-c2ccc(O)cc2)cc1  283 °C
3. Cc1ccccc1N1C(=O)c2cc(S(N)(=O)=O)c(Cl)cc2NC1C (stereo unspecified)  256 °C
4. CC1OC(OCC2OC(Oc3c(-c4ccc(O)cc4)oc4cc(OC5OC(C)C(O)C(O)C5O)cc(O)c4c3=O)C(O)C(O)C2O)C(O)C(O)C1O (stereo unspecified)  250 °C
5. Nc1ccc2cc3ccccc3cc2c1  239 °C
6. O=C1OC(=O)C2C1C1(Cl)C(Cl)=C(Cl)C2(Cl)C1(Cl)Cl (stereo unspecified)  233 °C
7. N#Cc1cc[n+]([O-])cc1  224 °C
8. CC[N+](C)(C)CCN(C)CC[N+](C)(C)CC.[Br-].[Br-]  214 °C
9. Nc1ccc2c(n1)[nH]c1ccccc12  202 °C
10. CC[C@H]1OC(=O)[C@H](C)[C@@H](O[C@@H]2O[C@H](C)C[C@H](N(C)C)[C@H]2O)[C@@H](C)C[C@@H](C)C(=O)C=C[C@]1(C)O  196 °C
11. O=[N+]([O-])c1ccc(O/N=C/c2cc(Br)c(O)c(Br)c2)c([N+](=O)[O-])c1  196 °C
12. NCCOB(c1ccccc1)c1ccccc1  193 °C
13. COc1cc(C=O)ccc1O[C@@H]1O[C@H](CO)[C@@H](O)[C@H](O)[C@H]1O  189 °C
14. c1ccc(Cc2nc3ccccc3[nH]2)cc1  187 °C
15. NC(=O)c1cc([N+](=O)[O-])cc([N+](=O)[O-])c1  184 °C
16. O=C(OCC1(COC(=O)c2cccnc2)CCCC(COC(=O)c2cccnc2)(COC(=O)c2cccnc2)C1O)c1cccnc1  178 °C
17. Cc1ccc2c(c1)C(=O)c1ccccc1C2=O  177 °C
18. CC(C)(O)C(Br)(Br)Br  169 °C
19. O=NN([O-])c1ccccc1.[NH4+]  164 °C
20. COc1cc(OC)nc(N=C(O)NS(=O)(=O)Nc2ccccc2C(=O)C2CC2)n1  162 °C
21. O=c1c(Cl)c(Cl)cnn1-c1ccccc1  162 °C
22. O=C1C=CC(=O)c2c(O)cccc21  155 °C
23. NS(=O)(=O)c1ccc(S(=O)(=O)CCCO)cc1  150 °C
24. NC(=O)Oc1ccccc1  150 °C
25. CCCOc1cc(N)ccc1C(=O)OCCN(CC)CC.Cl  149 °C
26. O=C(O)C(c1ccccc1)c1ccccc1  147 °C
27. Cc1cccc(C(=O)O)c1C  146 °C
28. O=CC[C@@H](O)C(O)[C@H](O)CO (stereo in doubt)  146 °C
29. CCCOc1ccc(C(=O)O)cc1  145 °C
30. CS(=O)(=O)Nc1ccc([N+](=O)[O-])cc1Oc1ccccc1  144 °C
31. O=C1CC(C(=O)O)CC(=O)C1=C(O)C1CC1 (stereo unspecified)  144 °C
32. COC(=O)Nc1cccc(OC(=O)Nc2cccc(C)c2)c1  143 °C
33. COc1ccc(C[C@H]2NC[C@H](O)[C@H]2OC(C)=O)cc1  140 °C
34. NCCCC(N)C(=O)O (stereo unspecified)  140 °C
35. COC(=O)[C@@H](N)Cc1ccc(O)cc1  137 °C
36. COc1cc(-c2ccc(N)c(OC)c2)ccc1N  137 °C
37. CN(C)C(=O)C(c1ccccc1)c1ccccc1  135 °C
38. O=C(O)c1c(F)ccc(F)c1F  130 °C
39. Cc1c(C)c(C)c(O)c(C)c1C  128 °C
40. O=C/C(Cl)=C(/Cl)C(=O)O  127 °C
41. O=[N+]([O-])c1ccccc1-c1ccccc1[N+](=O)[O-]  126 °C
42. CNC(=O)N(C)c1nc2ccccc2s1  120 °C
43. O=C(Oc1cccc2cccnc12)c1ccccc1  119 °C
44. CCOC(=O)Nc1ccc(NCc2ccc(F)cc2)nc1N  116 °C
45. Brc1cncc(Br)c1  112 °C
46. CC(C)OC(=O)C1(S(=O)(=O)c2ccc([N+](=O)[O-])cc2)CCCCC1  110 °C
47. O=C(O)c1cccc(C(F)(F)F)c1  106 °C
48. O=CCO  97 °C
49. c1ccc(C(c2ccccc2)c2ccccc2)cc1  94 °C
50. CC[C@@H](CO)NCCN[C@@H](CC)CO  89 °C
51. Nc1c(Br)cccc1Br  87.5 °C
52. Cc1cc(=O)[nH]o1  86.5 °C
53. Nc1c([N+](=O)[O-])ccc(Oc2ccccc2)c1Cl  81.5 °C
54. OCC(Br)(Br)Br  81 °C
55. CCN(CC)CCn1cnc2c1c(=O)n(C)c(=O)n2C  75 °C
56. COc1cccc(OC)c1C(C)=O  69 °C
57. CCN(CC)C(C)CN1c2ccccc2Sc2ccccc21 (stereo unspecified)  64.5 °C
58. CCCCCCCCCCCCCCCCC(=O)O  61.3 °C
59. Cc1ccccc1NCc1ccccc1  60 °C
60. COc1cc(CC#N)ccc1O  56.5 °C
61. O=S(=O)(CCl)c1ccccc1  54 °C
62. Oc1ccc(Cl)cc1Cc1ccccc1  48.5 °C
63. c1ccc(COc2ccccc2)cc1  40 °C
64. COC(=O)c1cccc(N)c1  39 °C
65. O=C(O)C1=CCCCC1  38 °C
66. Cc1cc(Cl)ccc1N=CN(C)C  35 °C
67. [N-]=[N+]=NC(=O)c1ccccc1  32 °C
68. O=S1CCC1  31.5 °C
69. CC(=O)c1ccc(C)cc1  28 °C
70. O=C1CCCCCC1c1ccccc1 (stereo unspecified)  22.2 °C
71. c1cncc([C@@H]2CCCCN2)c1  9 °C
72. O=COCC=Cc1ccccc1  0 °C
73. ClC=C(Cl)C(Cl)=CCl  -4 °C
74. Nc1cccc(F)c1  -5 °C
75. CCCCCCCCCCI  -16.3 °C
76. Clc1cccc(Br)c1  -21.5 °C
77. CC1CCCCC1(C)C (stereo unspecified)  -29 °C
78. CCOc1ccccc1  -29.5 °C
79. C=CCCCC(=O)O  -37 °C
80. ClCc1ccccc1  -45 °C
81. CCCCC(CC)COP(=O)(O)OCC(CC)CCCC (stereo unspecified)  -50 °C
82. CI  -66.4 °C
83. FC(F)(F)C(F)(F)C(F)(F)C(F)(F)I  -68 °C
84. COC1CCCCC1  -74.4 °C
85. CP(C)C  -85 °C
86. C1CCSC1  -96.1 °C
87. FC(F)(F)C(F)(F)C(F)(F)C(F)(F)C(F)(F)F  -100 °C
88. CC(C)CCCC(C)(C)C  -105 °C
89. C=C1CCCCC1  -107 °C

In order of rising log10 Koc (L/kg):
1. C1OC1C1CO1 (stereo unspecified)  0.4
2. CCOP(=S)(OCC)Oc1ccc(S(C)(=O)=O)cc1  2.17
3. NC(=O)c1cc([N+](=O)[O-])cc([N+](=O)[O-])c1  2.31
4. CN(C)C(=O)C(c1ccccc1)c1ccccc1  2.32
5. c1cc[n+]2c(c1)-c1cccc[n+]1CC2  2.7
6. CNC(=O)N(C)c1nc2ccccc2s1  2.8
7. Cc1cc(Cl)ccc1N=CN(C)C  2.91
8. COC(=O)Nc1cccc(OC(=O)Nc2cccc(C)c2)c1  3.38
9. Nc1ccc2cc3ccccc3cc2c1  4.45

In order of rising boiling point:
1. C[C@H](F)Cl  16.2 °C
2. FC(F)(F)C(F)(F)C(F)(F)C(F)(F)C(F)(F)F  29.2 °C
3. CP(C)C  37.5 °C
4. CI  42.5 °C
5. CC(C)CON=O  67 °C
6. FC(F)(F)C(F)(F)C(F)(F)C(F)(F)I  67 °C
7. FCCCCl  80 °C
8. CC1CCOC1 (stereo unspecified)  86.5 °C
9. COCCCl  92.5 °C
10. C=C1CCCCC1  102 °C
11. CC(C)CN=C=O  106 °C
12. C=CC(C)CCCC (stereo unspecified)  111 °C
13. C/C=C(\C)C=O  117 °C
14. C1CCSC1  121 °C
15. CC/C=C\CC=O  121 °C
16. CCOC(=O)C(F)Cl (stereo unspecified)  129 °C
17. COC1CCCCC1  133 °C
18. CC1CCCCC1(C)C (stereo unspecified)  145 °C
19. CC(C)CCCC(C)(C)C  149 °C
20. C=CC(C)CCCC(C)C (stereo unspecified)  154 °C
21. ClCCC(Cl)(Cl)Cl  157 °C
22. CC(=O)C1CCCC1  158 °C
23. CC(C)CN=C=S  160 °C
24. CCCOC(=O)CCl  161 °C
25. CCCCC(C=O)CC (stereo unspecified)  163 °C
26. CCCC(CC)C(C)CC (stereo unspecified)  165 °C
27. CCC(C)(C)C(C)(C)CC  170 °C
28. CCOc1ccccc1  170 °C
29. ClCc1ccccc1  179 °C
30. CCCCC(C)(O)CCC (stereo unspecified)  180 °C
31. CCCC(=O)C(=O)OCC  182 °C
32. ClC=C(Cl)C(Cl)=CCl  188 °C
33. Nc1cccc(F)c1  188 °C
34. Clc1cccc(Br)c1  196 °C
35. C=CCCCC(=O)O  203 °C
36. CCCCc1cccnc1  206 °C
37. COc1ccccc1N(C)C  210 °C
38. ClC(Cl)C(Cl)(Cl)C(Cl)Cl  218 °C
39. Brc1cncc(Br)c1  222 °C
40. CC(=O)c1ccc(C)cc1  226 °C
41. O=C(O)c1cccc(C(F)(F)F)c1  238 °C
42. O=C(O)C1=CCCCC1  241 °C
43. O=COCC=Cc1ccccc1  252 °C
44. COc1cccc(CC(C)=O)c1  259 °C
45. Nc1c(Br)cccc1Br  263 °C
46. Cc1c(C)c(C)c(O)c(C)c1C  267 °C
47. c1cncc([C@@H]2CCCCN2)c1  276 °C
48. Cc1cc2cccc(C)c2cc1C  285 °C
49. c1ccc(COc2ccccc2)cc1  286 °C
50. Cc1ccccc1NCc1ccccc1  302 °C
51. O=[N+]([O-])c1ccccc1-c1ccccc1[N+](=O)[O-]  305 °C
52. COc1cc(-c2ccc(N)c(OC)c2)ccc1N  356 °C
53. c1ccc(C(c2ccccc2)c2ccccc2)cc1  359 °C
54. COC(=O)[C@]1(C)CCC[C@@]2(C)[C@H]1CC=C1C=C(C(C)C)CC[C@@H]12  362 °C
55. CCCCCCCCCCCCCCCCC(=O)O  364 °C

In order of rising log10 vapour pressure (mmHg):
1. COC(=O)Nc1cccc(OC(=O)Nc2cccc(C)c2)c1  -11
2. c1cc[n+]2c(c1)-c1cccc[n+]1CC2  -8
3. O=C1CC(C(=O)O)CC(=O)C1=C(O)C1CC1 (stereo unspecified)  -7.76
4. CN(C)C(=O)C(c1ccccc1)c1ccccc1  -7.52
5. CCCCCCCCCCCCCCCCC(=O)O  -7.21
6. CNC(=O)N(C)c1nc2ccccc2s1  -6.95
7. Nc1c([N+](=O)[O-])ccc(Oc2ccccc2)c1Cl  -6.92
8. Oc1ccc(Cl)cc1Cc1ccccc1  -5.85
9. c1ccc(C(c2ccccc2)c2ccccc2)cc1  -5.25
10. Clc1ccc(-c2ccc(Cl)c(Cl)c2)c(Cl)c1  -4.33
11. O=c1c(Cl)c(Cl)cnn1-c1ccccc1  -4.05
12. Cc1cc(Cl)ccc1N=CN(C)C  -3.03
13. Cc1cc(=O)[nH]o1  -2.86
14. c1ccc(COc2ccccc2)cc1  -2.2
15. CCCCCCCCCCI  -1.85
16. ClCc1ccccc1  0.0899
17. CCOc1ccccc1  0.185
18. CCCCC(C=O)CC (stereo unspecified)  0.255
19. C1CCSC1  1.26
20. C1OC1C1CO1 (stereo unspecified)  1.59
21. C=C1CCCCC1  1.6
22. CI  2.61
23. COC(F)(F)C(F)(F)F  3.21

With ClCc1ccccc1 the ready biodegradability was “readily biodegradable”.
With Oc1ccc(-c2ccc(O)cc2)cc1 the ready biodegradability was “not readily biodegradable”.
With CCOC(=O)c1ccc(NC(=O)CCl)cc1 the ready biodegradability was “readily biodegradable”.
In the case of CCC(C)c1ccc(OCC2CO2)cc1 (stereo unspecified), the ready biodegradability is reported as “not readily biodegradable”.
In the case of CNC(=O)CC(C)=O, the ready biodegradability is reported as “readily biodegradable”.
With O=C(c1ccccc1)c1ccccc1 the ready biodegradability was “not readily biodegradable”.
In the case of Cl/C=C/Cl, the ready biodegradability is reported as “not readily biodegradable”.
For COc1cc(-c2ccc(N)c(OC)c2)ccc1N, the ready biodegradability was “not readily biodegradable”.
With O=C(Oc1cccc2cccnc12)c1ccccc1 the ready biodegradability was “readily biodegradable”.
In the case of CC(=O)c1ccc(C)cc1, the ready biodegradability is reported as “readily biodegradable”.
In the case of CCCCC(CC)COP(=O)(O)OCC(CC)CCCC (stereo unspecified), the ready biodegradability is reported as “not readily biodegradable”.
In the case of Oc1ccc(Cl)cc1Cc1ccccc1, the ready biodegradability is reported as “readily biodegradable”.
In the case of CCOc1ccccc1, the ready biodegradability is reported as “readily biodegradable”.

In order of falling log10 Henry constant (atm·m³/mol):
1. CI  -2.28
2. Clc1cccc(-c2ccccc2)c1Cl  -3.64
3. Clc1ccc(-c2ccc(Cl)c(Cl)c2)c(Cl)c1  -3.92
4. O=CCO  -7.62

In order of rising log10 Koa:
1. CI  2.16
2. Clc1ccc(-c2ccc(Cl)c(Cl)c2)c(Cl)c1  9.02

same assay, conditions: fish

In order of rising log10 BCF:
1. CCCCC(CC)COP(=O)(O)OCC(CC)CCCC (stereo unspecified)  0.64
2. c1cc[n+]2c(c1)-c1cccc[n+]1CC2  0.76
3. O=C(c1ccccc1)c1ccccc1  1.08
4. Clc1cccc(-c2ccccc2)c1Cl  3.98

In order of rising log10 biotransformation half-life (days):
1. Clc1ccc(-c2ccc(Cl)c(Cl)c2)c(Cl)c1  2.07
2. Clc1cccc(-c2ccccc2)c1Cl  2.15
